Patent publication US20010008947A1, “2-AMINO-4-PHENYL-4-OXO-BUTYRIC ACID DERIVATIVES” (priority 1993, published 2001)
pIC50: −log10 of the molar value. Counter-ions that a name gives are not always drawn.

How the values were obtained:
kynureninase = biological target: T1, kynureninase (Rattus norvegicus, UniProt P70712); test: Kynureninase inhibition in rat liver homogenates; assay type: biochemical; conditions: rat liver homogenate; for inhibition at 1000 µM: 1 mM
T1 construct: from tissue; host or cells: rat liver homogenate
T1 sequence (P70712 1-464): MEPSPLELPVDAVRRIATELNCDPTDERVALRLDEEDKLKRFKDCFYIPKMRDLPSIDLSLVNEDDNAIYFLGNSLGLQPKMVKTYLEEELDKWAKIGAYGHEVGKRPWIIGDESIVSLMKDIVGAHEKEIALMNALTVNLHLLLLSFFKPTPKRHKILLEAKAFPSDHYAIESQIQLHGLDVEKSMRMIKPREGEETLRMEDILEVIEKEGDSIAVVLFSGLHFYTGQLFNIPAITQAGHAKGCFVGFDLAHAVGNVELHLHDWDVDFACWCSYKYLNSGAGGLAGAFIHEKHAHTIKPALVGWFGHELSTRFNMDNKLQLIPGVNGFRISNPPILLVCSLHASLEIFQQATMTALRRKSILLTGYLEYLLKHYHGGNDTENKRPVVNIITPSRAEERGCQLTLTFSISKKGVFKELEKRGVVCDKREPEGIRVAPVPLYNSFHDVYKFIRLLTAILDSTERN
Experimental: The efficacy of the compounds of the invention in the inhibition of kynureninase has been evaluated in rat liver homogenates as described by, Takikawa O. et al. in J. Biol. Chem. 261 (8), 3648-3652 - 1986), with slight modifications.
HPLC method was essentially Takikawa's method, using the same Fluorimetric detection (ex. 313 nm, em. 420 nm) but changing the column (Nova-Pak C18 3.9×300 mm) and the mobile phase (phosphate buffer 80 mM, 13% CH.CN pH 2.5).

rat brain kynureninase [1] = biological target: T2, rat brain kynureninase (Rattus norvegicus, UniProt P70712); test: Kynureninase assay in the rat brain; assay type: biochemical; conditions: rat brain homogenate; for inhibition at 100 µM: read-out: % INHIBITION AT 100 μM Kyn-Ase
T2 construct: Partial purification of rat brain kynureninase was performed according to Lee et al; from tissue; host or cells: rat brain, partially purified enzyme
T2 sequence (P70712 1-464): T1 sequence (P70712 1-464)
Experimental: Kynureninase assay in the rat brain
Partial purification of rat brain kynureninase was performed according to Lee et al., “Isolation and characterization of kynureninase from rat liver”, advances in Tryptophan Research, 431-434, 1992.
To perform rat brain kynureninase assay, a reaction mixture (final volume 0.2 ml) containing 100 mM tris-HCl, pH 8.0, […] pyridoxal phosphate, […] kynurenine, 20 μl of partially purified enzyme and 100 μM of inhibitor solution was prepared.
The reaction was carried out at 37° C. for 3 hours and then stopped by adding 50 μl of perchloric acid 2N. After centrifugation at 11000 rpm for 15 min., anthranilic acid in the supernatant was determined fluorimetrically in a HPLC system (as described for the liver method).

rat brain kynureninase [2] = biological target: T2, rat brain kynureninase; test: Kynureninase assay in the rat brain; assay type: biochemical; conditions: rat brain homogenate; read-out: IC50 Kyn-Ase
kynurenine-3-hydroxylase [3] = biological target: T3, kynurenine-3-hydroxylase (Rattus norvegicus, UniProt O88867); test: Kynurenine-3-hydroxylase assay in the rat brain; assay type: biochemical; conditions: rat brain homogenate; for inhibition at 100 µM: read-out: % INHIBITION AT 100 μM Kyn-3-OH-Ase; for pIC50: read-out: IC50 Kyn-3-OH-Ase
T3 construct: Brain was homogenized in ice-cold 0.32 M sucrose and centrifugated at 12000×g; from tissue; host or cells: rat brain homogenate, washed pellet suspended
T3 sequence (O88867 whole entry): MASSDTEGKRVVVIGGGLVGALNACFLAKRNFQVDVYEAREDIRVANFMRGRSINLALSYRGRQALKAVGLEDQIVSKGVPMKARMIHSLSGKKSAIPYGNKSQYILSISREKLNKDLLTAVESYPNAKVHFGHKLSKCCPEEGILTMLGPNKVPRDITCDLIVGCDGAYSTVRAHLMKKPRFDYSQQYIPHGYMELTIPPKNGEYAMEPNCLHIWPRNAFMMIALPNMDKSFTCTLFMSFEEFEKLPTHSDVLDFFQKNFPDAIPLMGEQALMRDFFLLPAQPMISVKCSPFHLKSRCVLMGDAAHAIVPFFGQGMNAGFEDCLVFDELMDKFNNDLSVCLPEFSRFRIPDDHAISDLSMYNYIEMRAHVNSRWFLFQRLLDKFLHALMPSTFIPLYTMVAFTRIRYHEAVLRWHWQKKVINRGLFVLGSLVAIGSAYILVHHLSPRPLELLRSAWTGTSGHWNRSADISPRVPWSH
Experimental: Kynurenine-3-hydroxylase assay in the rat brain
Kynurenine-3-hydroxylase activity was quantified by the conversion of L-kynurenine to 3-hydroxykynurenine. Brain was homogenized in ice-cold 0.32 M sucrose and centrifugated at 12000×g, for 30 min at 4 C. The pellet was washed three times with 0.32 M sucrose by centrifugation and suspended in 0.14 M KCl in 20 mM K-phosphate buffer pH 7 (1 g tissue in 2 ml buffer).
The reaction mixture contained: 75 μl of suspended homogenate; 100 μl of substrate solution containing 50 mM K-phosphate buffer pH 7.5, 2 mM MgCl2, 0.4 mM NADPH and 50 μM L-kynurenine (final concentration); 25 μl of different concentrations of inhibitor solutions.
The reaction was stopped by addition of 200 μl of 1 M HClO4 after 60 min. incubation.
3-hydroxykynurenine formed was quantified by HPLC with coulometric detection (working voltage was +0.2 V). The column was a 10 cm C18 reversed phase (3 μm). The mobile phase consisted of 950 ml distilled water. 20 ml acetonitrile, 9 ml triethylamine, 5.9 ml phosphoric acid, 100 mg sodium EDTA and 1.5 g heptanesulfonic acid. The flow-rate was 1 ml/min.

kynurenine-3-hydroxylase [4] = biological target: T3, kynurenine-3-hydroxylase; test: Kynurenine-3-hydroxylase assay in the rat liver; assay type: biochemical; conditions: rat liver homogenate
Experimental: Kynurenine-3-hydroxylase assay in the rat liver
Rat liver is homogenized in cold 0.32 M sucrose.
The homogenates are centrifuged at 12000×rpm for 30 minutes at 4° C. The precipitate, after having been washed three times with 0.32 M sucrose by means of centrifugation (12000×rpm for 30 min), is resuspended in 20 mM K-buffer+0.14 M KCl at pH 7 (1 g of liver in 6.5 ml ).
The reaction at 37° C. is terminated by the addition of 200 μl of […] after 10 minutes of incubation.
The concentrations of 3-hydroxy-kynurenine, produced in the absence or presence of the tested molecules are determined by HPLC with coulometric detection (pot. +0.20 V), using for the separation a reversed phase column C18, 10 cm long and a 3 μm particulate. The composition of the mobile phase was: 950 ml of water for HPLC, 20 ml of acetonitrile, 9 ml of triethylamine, 5.9 ml of phosphoric acid, 100 mg of Na EDTA and 1.5 g of heptanesulfonic acid.

Structure (SMILES)	melting point	inhibition at 100 µM (rat brain kynureninase [1])	inhibition at 100 µM (kynurenine-3-hydroxylase [3])	pIC50 (kynurenine-3-hydroxylase [3])	further results
COc1ccc(Cl)cc1C(=O)CC(N)C(=O)O (racemic) (as salt: hydrochloride) [FCE 28836, (R,S)-2-amino-4-(2′-methoxy-5′-chlorophenyl-4-oxo-butyric acid]	212 to 213 °C				
NC(CC(=O)c1ccccc1)C(=O)O (racemic) [FCE 27377, (R,S)-2-amino-4-phenyl-4-oxo-butyric acid]		35.6%			inhibition at 100 µM (kynureninase): 46%; inhibition at 1000 µM (kynureninase): 86%
COc1ccccc1C(=O)CC(N)C(=O)O (racemic) [FCE 27384, (R,S)-2-amino-4-(2′-methoxyphenyl)-4-oxo-butyric acid]	115 °C (dec.)	86%	4%		inhibition at 100 µM (kynureninase): 96%; inhibition at 1000 µM (kynureninase): 97%; pIC50 (rat brain kynureninase [2]): 5.22; inhibition at 100 µM (kynurenine-3-hydroxylase [4]; 100 μM): 3%; inhibition at 1000 µM (kynurenine-3-hydroxylase [4]; 1 mM): 30%
COc1ccc(C(=O)CC(N)C(=O)O)cc1 (racemic) [FCE 28628, (R,S)-2-amino-4-(4′-methoxyphenyl)-4-oxo-butyric acid]	160 °C (dec.)	17%	79%	4.52	
COc1cccc(C(=O)C[C@@H](N)C(=O)O)c1 (racemic) [FCE 28629, (R,S)-2-amino-4-(3′-methoxyphenyl)-4-oxo-butyric acid]					% INHIBITION AT 100 μM Kyn-Ase (rat brain kynureninase [1]): 54%; % INHIBITION AT 100 μM Kyn-3-OH-Ase (kynurenine-3-hydroxylase [3]): 29%
Cc1ccccc1C(=O)CC(N)C(=O)O (racemic) [FCE 28630, (R,S)-2-amino-4-(2′-methylphenyl)-4-oxo-butyric acid]	192 to 193 °C (dec.)	40%	81%	4.64	
N[C@H](CC(=O)c1ccccc1F)C(=O)O (racemic) [FCE 28631, (R,S)-2-amino-4-(2′-fluorophenyl)-4-oxo-butyric acid]					% INHIBITION AT 100 μM Kyn-Ase (rat brain kynureninase [1]): 52%; % INHIBITION AT 100 μM Kyn-3-OH-Ase (kynurenine-3-hydroxylase [3]): 47%
N[C@H](CC(=O)c1cccc(C(F)(F)F)c1)C(=O)O (racemic) [FCE 28680, (R,S)-2-amino-4-(3′-trifluoromethylphenyl)-4-oxo-butyric acid]					% INHIBITION AT 100 μM Kyn-Ase (rat brain kynureninase [1]): 67%; % INHIBITION AT 100 μM Kyn-3-OH-Ase (kynurenine-3-hydroxylase [3]): 17%
NC(CC(=O)c1ccc(Cl)cc1)C(=O)O (racemic) [FCE 28751, (R,S)-2-amino-4-(4′-chlorophenyl)-4-oxo-butyric acid]	204 to 206 °C	0%	85%	5.15	
NC(CC(=O)c1cccc(Cl)c1)C(=O)O (racemic) [FCE 28752, (R,S)-2-amino-4-(3′-chlorophenyl)-4-oxo-butyric acid]	198 to 200 °C (dec.)	60%	93%	6.40	
N[C@H](CC(=O)c1ccccc1Cl)C(=O)O (racemic) [FCE 28753, (R,S)-2-amino-4-(2′-chloroohenyl)-4-oxo-butyric acid]					% INHIBITION AT 100 μM Kyn-Ase (rat brain kynureninase [1]): 71%; % INHIBITION AT 100 μM Kyn-3-OH-Ase (kynurenine-3-hydroxylase [3]): 22%
NC(CC(=O)c1cccc(F)c1)C(=O)O (racemic) [FCE 28764, (R,S)-2-amino-4-(3′-fluorophenyl)-4-oxo-butyric acid]	194 to 195 °C (dec.)	0%	93%	6.05	
COc1ccc(F)cc1C(=O)C[C@@H](N)C(=O)O (racemic) [FCE 28766, (R,S)-2-amino-4-(2′-methoxy-5′-fluoropheryl)-4-oxo-butyric acid]					% INHIBITION AT 100 μM Kyn-Ase (rat brain kynureninase [1]): 81%; % INHIBITION AT 100 μM Kyn-3-OH-Ase (kynurenine-3-hydroxylase [3]): 2%
NC(CC(=O)c1ccc(Cl)c(Cl)c1)C(=O)O (racemic) [FCE 28833, (R,S)-2-amino-4-(3′,4′-dichlorophenyl)-4-oxo-butyric acid]			99%	6.70	
COc1ccc(Cl)cc1C(=O)CC(N)C(=O)O (racemic) [FCE 28836, (R,S)-2-amino-4-(2′-methoxy-5′-chlorophenyl-4-oxo-butyric acid]			73%	4.48	
N[C@@H](CC(=O)c1ccccc1)C(=O)O [FCE 28468, (S)-2-amino-4-phenyl-4-oxo-butyric acid]		61%			
N[C@H](CC(=O)c1ccccc1)C(=O)O [FCE 28469, (R)-2-amino-4-phenyl-4-oxo-butyric acid]		19%			
COc1ccccc1C(=O)C[C@H](N)C(=O)O [FCE 28626, (S)-2-amino-4-(2′-methoxyphenyl)-4-oxo-butyric acid]	130 °C (dec.)				
